Data taken from patent US20050261283A1, “Methods and compositions for the treatment of graft failure” (priority 2002, published 2005).
Values after ≈ are worked out from the molar mass of the structure shown. Counter-ions that a name gives are not always drawn.

Legend:
[1] = test system: human aortic vascular smooth muscle cell (HASOM cells); experiment: PDGF-BB induced migration of human aortic vascular smooth muscle cells, Boyden chamber; type: cell-based
Procedure: The cells were then cultured in the presence of these agents for forty-eight hours prior to the migration assay. […] Each well contained an insert with a polycarbonate filter having 8 μm pores. In preparation for the migration assays, the membranes were coated with 0.1% gelatin for 8 hours, aspirated, and allowed to dry for 2 hours.
The M-199 media containing 0.5% BSA and 20 ng/ml human PDGF-B (hPDGF-BB) was placed in the bottom Boyden chamber. Cells were incubated at 5% CO2 at 37° C. for twelve hours and the cells lying on the upper surface of the membrane were scraped off. The insert membranes were removed and the cells on the lower surface of each membrane were stained with hematoxylin. Cell migration was then quantified by counting the cells in five random high-power fields on the lower surface of the membrane. All assays were run in triplicate.

[2] = test system: cells of porcine origin from a primary explant of porcine carotid artery; experiment: PDGF induced migration of cells of porcine origin (carotid artery explant), Boyden chamber; type: cell-based; settings: hPDGF-BB 20 ng/ml; second passage cells; FIG. 13

Structure (SMILES)	inhibition of PDGF induced migration of HASOM cells ([1]; hPDGF-BB 20 ng/ml, 48 h pre-treatment, 12 h migration, FIG. 12)	inhibition of PDGF-B induced migration of porcine cells [2]	IC50 ([1]; Homo sapiens, in vitro VSMC migration, read-out: IC50 for blocking VSMC migration)
Cc1ccc(NC(=O)c2ccc(CN3CCN(C)CC3)cc2)cc1Nc1nccc(-c2cccnc2)n1 [Gleevec, imatinib mesylate]	potently inhibited PDGF induced migration of HASOM cells in a dose dependent manner	inhibited PDGF-B induced migration of theses porcine cells a dose dependent manner	
CO[C@H]1C[C@@H]2CC[C@@H](C)[C@@](O)(O2)C(=O)C(=O)N2CCCC[C@H]2C(=O)O[C@H]([C@H](C)C[C@@H]2CC[C@@H](O)[C@H](OC)C2)CC(=O)[C@H](C)/C=C(\C)[C@@H](O)[C@@H](OC)C(=O)[C@H](C)C[C@H](C)/C=C/C=C/C=C/1C [rapamycin]			1 to 5 ng/mL (≈ 1.09 to 5.47 nM)
